Where two headings read alike, the source gives them in different places.
Key:
[1] = target: T1, α-amylase (Hi media RM 638) enzyme (Aspergillus oryzae, UniProt P0C1B3); experiment: biochemical
T1 construct: purchased Hi media RM 638
Procedure: The anti-diabetic activity of all the prepared derivatives (6a–i) and (7a–i) was evaluated following the method reported in refs. [31, 32]. In brief, to check the anti-diabetic activity of each compound, […] different concentrations, ranging from 250 to 50 μg, with a difference of 50 μg, were used and each concentration was treated with 200 μL of α-amylase (Hi media RM 638) enzyme to determine the anti-diabetic activity in triplicate at each concentration. Here, 0.6 mL of each sample at each concentration was mixed with 0.6 mL of buffered solution (0.03 M sodium phosphate buffer), which was subsequently incubated for 16 min at 37 °C. Afterwards, 1 mL of starch solution was added to the above solutions. In the next step, 1 mL of color-imparting reagent, […] (DNSA), was poured into each solution and the solution was left for 6 min in boiling water. Finally, the solutions were made up to 20 mL with distilled water. […] The absorbance value taken at 670 nm was used to check the performance of the newly obtained derivatives. The following Equation (1) was used to determine the percentage inhibition of each drug at the different concentrations. (1) %A=Acontrol−Asample/Acontrol×100 where %A, Acontrol and Asample are the percentage inhibition, absorbance blank and absorbance of sample, respectively.
The concentration of pyrazolo[3,4-b]pyridine derivative needed to inhibit the α-amylase activity by 50% is known as the IC50 value and is calculated from the plot of the percent inhibition against the log inhibitor concentration (i.e., synthesized drugs). A non-linear regression analysis on Graph Pad Prism 8.0.2. was performed on the plots to extract the IC50 value for each compound.

[2] = Table 3, anti-diabetic, hydrazide derivatives, read-out: IC50 Value
[3] = Table 2, in vitro anti-diabetic, ester derivatives, read-out: IC50 Value
[4] = Figure 6, read-out: IC50 (α-amylase inhibition)

| Molecule | IC50 [1, 2] [µM] | melting point [°C] | IC50 [1, 3] [µM] | IC50 [1, 4] [µM] |
| --- | --- | --- | --- | --- |
| Cc1ccc(-c2ccc(-c3cc(C(=O)NN)nc4c3c(C)nn4-c3ccccc3)s2)c(C)c1 [Compound 7e, 4-(5-(2,4-Dimethylphenyl)thiophen-2-yl)-3-methyl-1-phenyl-1H-pyrazolo[3,4-b]pyridine-6-carbohydrazide] | 8.94 | – | – | – |
| CCOC(=O)c1cc(-c2ccc(-c3cccs3)s2)c2c(C)nn(-c3ccccc3)c2n1 [Compound 6a, Ethyl 4-([2,2′-Bithiophen]-5-yl)-3-methyl-1-phenyl-1H-pyrazolo[3,4-b]pyridine-6-carboxylate] | – | 154 to 157 | 8.38 | – |
| CCOC(=O)c1cc(-c2ccc(-c3cccc4c3OCO4)s2)c2c(C)nn(-c3ccccc3)c2n1 [Compound 6c, Ethyl 4-(5-(Benzo[d][1,3]dioxol-4-yl)thiophen-2-yl)-3-methyl-1-phenyl-1H-pyrazolo[3,4-b]pyridine-6-carboxylate] | – | 127 | 5.15 | – |
| Cc1nn(-c2ccccc2)c2nc(C(=O)NN)cc(-c3ccc(-c4ccccc4)s3)c12 [Compound 7b, 3-Methyl-1-phenyl-4-(5-phenylthiophen-2-yl)-1H-pyrazolo[3,4-b]pyridine-6-carbohydrazide] | 5.18 | – | – | – |
| CCOC(=O)c1cc(-c2ccc(Br)s2)c2c(C)nn(-c3ccccc3)c2n1 [Compound 4, Ethyl 4-(5-Bromothiophen-2-yl)-3-methyl-1-phenyl-1H-pyrazolo[3,4-b]pyridine-6-carboxylate] | – | 203 to 205 | 7.26 | – |
| CCOC(=O)c1cc(-c2ccc(-c3cccc(F)c3F)s2)c2c(C)nn(-c3ccccc3)c2n1 [Compound 6g, Ethyl 4-(5-(2,3-Difluorophenyl)thiophen-2-yl)-3-methyl-1-phenyl-1H-pyrazolo[3,4-b]pyridine-6-carboxylate] | – | 170.3 | 5.56 | 5.2 |
| Ethyl 4-(5-(3,5-Dimethylphenyl)thiophen-2-yl)-3-methyl-1-phenyl-1H-pyrazolo[3,4-b]pyridine-6-carboxylate [Compound 6e] | – | – | 9.01 | – |
| CCOC(=O)c1cc(-c2ccc(-c3ccc(Cl)s3)s2)c2c(C)nn(-c3ccccc3)c2n1 [Compound 6i, Ethyl 4-(5′-Chloro-[2,2′-bithiophen]-5-yl)-3-methyl-1-phenyl-1H-pyrazolo[3,4-b]pyridine-6-carboxylate] | – | 165 | 7.4 | – |
| Cc1nn(-c2ccccc2)c2nc(C(=O)NN)cc(-c3ccc(-c4cccc(C(C)(C)C)c4)s3)c12 [Compound 7f, 4-(5-(3-(Tert-butyl)phenyl)thiophen-2-yl)-3-methyl-1-phenyl-1H-pyrazolo[3,4-b]pyridine-6-carbohydrazide] | 5.1 | – | – | – |
| Cc1nn(-c2ccccc2)c2nc(C(=O)NN)cc(-c3ccc(-c4ccc(Cl)s4)s3)c12 [Compound 7i, 4-(5′-Chloro-[2,2′-bithiophen]-5-yl)-3-methyl-1-phenyl-1H-pyrazolo[3,4-b]pyridine-6-carbohydrazide] | 8.45 | 270 | – | – |
| CCOC(=O)c1cc(-c2ccc(-c3cccc(C(C)(C)C)c3)s2)c2c(C)nn(-c3ccccc3)c2n1 [Compound 6f, Ethyl 4-(5-(3-(Tert-butyl)phenyl)thiophen-2-yl)-3-methyl-1-phenyl-1H-pyrazolo[3,4-b]pyridine-6-carboxylate] | – | – | 58.6 | 58.7 |
| CCOC(=O)c1cc(-c2ccc(-c3cccc(C(F)(F)F)c3)s2)c2c(C)nn(-c3ccccc3)c2n1 [Compound 6h, Ethyl 3-Methyl-1-phenyl-4-(5-(3-(trifluoromethyl)phenyl)thiophene-2-yl)-1H-pyrazolo[3,4-b]pyridine-6-carboxylate] | – | 149.5 | 5.2 | 5.56 |
| Cc1nn(-c2ccccc2)c2nc(C(=O)NN)cc(-c3ccc(-c4cccc(F)c4F)s3)c12 [Compound 7g, 4-(5-(2,3-Fluorophenyl)thiophen-2-yl)-3-methyl-1-phenyl-1H-pyrazolo[3,4-b]pyridine-6-carbohydrazide] | 5.15 | 275 | – | 5.16 |
| Cc1nn(-c2ccccc2)c2nc(C(=O)NN)cc(-c3ccc(-c4cccs4)s3)c12 [Compound 7a, 4-([2,2′-Bithiophen]-5-yl)-3-methyl-1-phenyl-1H-pyrazolo[3,4-b]pyridine-6-carbohydrazide] | 5.21 | 255 | – | – |
| Cc1nn(-c2ccccc2)c2nc(C(=O)NN)cc(-c3ccc(Br)s3)c12 [Compound 5, 4-(5-Bromothiophen-2-yl)-3-methyl-1-phenyl-1H-pyrazolo[3,4-b]pyridine-6-carbohydrazide] | 7.91 | 265 | – | – |
| Cc1nn(-c2ccccc2)c2nc(C(=O)NN)cc(-c3ccc(-c4cccc(C(F)(F)F)c4)s3)c12 [Compound 7h, 3-Methyl-1-phenyl-4-(5-(3-(trifluoromethyl)phenyl)thiophen-2-yl)-1H-pyrazolo[3,4-b]pyridine-6-carbohydrazide] | 5.19 | – | – | 6.19 |
| CCOC(=O)c1cc(-c2ccc(-c3cc(OC)cc(OC)c3)s2)c2c(C)nn(-c3ccccc3)c2n1 [Compound 6d, Ethyl 4-(5-(3,5-Dimethoxyphenyl)thiophene-2-yl)-3-methyl-1-phenyl-1H-pyrazolo[3,4-b]pyridine-6-carboxylate] | – | 147.5 | 7.06 | – |
| CCOC(=O)c1cc(-c2ccc(-c3ccccc3)s2)c2c(C)nn(-c3ccccc3)c2n1 [Compound 6b, Ethyl 3-Methyl-1-phenyl-4-(5-phenylthiophen-2-yl)-1H-pyrazolo[3,4-b]pyridine-6-carboxylate] | – | – | 5.14 | – |
| Cc1nn(-c2ccccc2)c2nc(C(=O)NN)cc(-c3ccc(-c4cccc5c4OCO5)s3)c12 [Compound 7c, 4-(5-(Benzo[d][1,3]dioxol-4-yl)thiophen-2-yl)-3-methyl-1-phenyl-1H-pyrazolo[3,4-b]pyridine-6-carbohydrazide] | 5.17 | 276 | – | – |
| COc1cc(OC)cc(-c2ccc(-c3cc(C(=O)NN)nc4c3c(C)nn4-c3ccccc3)s2)c1 [Compound 7d, 4-(5-(3,5-Dimethoxyphenyl)thiophen-2-yl)-3-methyl-1-phenyl-1H-pyrazolo[3,4-b]pyridine-6-carbohydrazide] | 5.12 | 249 | – | – |
